Laboratory results taken from paper PMC7583898, “Novel Harmicines with Improved Potency against Plasmodium” (Molecules, 2020).
Like-named read-outs stand apart in the source and are kept apart here.

What was measured:
[1] = tested on: P. falciparum erythrocytic stage, PfDd2 (chloroquine-resistant) strain; experiment: In vitro drug sensitivity assay against erythrocytic stage of P. falciparum, PfDd2 strain (HRP2-ELISA); format: cell-based; conditions: Plasmodium falciparum, mean ± SD
Method: (§1) The antiplasmodial activity of harmicines 5 and 6 was evaluated against two laboratory P. falciparum strains (3D7 – CQ-sensitive, and Dd2 – CQ-resistant), as previously described, using the histidine-rich protein 2 (HRP2) assay. […] After three days of incubation at 37 °C, 5% CO2 and 5% oxygen, plates were frozen until analyzed by HRP2-ELISA. All compounds were evaluated in duplicate in at least two independent experiments. The IC50 was determined by nonlinear regression analysis of log concentration–response curves using the drc package v0.9.0 of R v2.6.1 [22].

[2] = tested on: P. falciparum erythrocytic stage, Pf3D7 (chloroquine-sensitive) strain; experiment: In vitro drug sensitivity assay against erythrocytic stage of P. falciparum, Pf3D7 strain (HRP2-ELISA); format: cell-based; conditions: Plasmodium falciparum, mean ± SD
Method: as §1

[3] = tested on: human liver hepatocellular carcinoma cell line (HepG2); experiment: In vitro cytotoxicity assay (neutral red); format: cell-based; conditions: for IC50: Homo sapiens, HepG2, 24 h, neutral red, one day incubation, mean ± SD; for SI, selectivity index: ratio between IC50 (HepG2) and IC50 (Pf3D7)
Method: A cytotoxicity assay was performed using the neutral red assay, as described previously, against human liver hepatocellular carcinoma cell line (HepG2) (Table 1). For the safety assessment, a selectivity index (SI) for each compound was calculated as the fractional ratio between the IC50 values for HepG2 and P. falciparum Pf3D7 strain (Table 2). In general, N-harmicines 5 are less cytotoxic than O-harmicines 6, which is in agreement with the results obtained for triazole-type harmicines. Furthermore, all N-harmicines, but only two O-harmicines, 6d and 6f, have more favorable SIs than the parent compound harmine (SI = 30). […] Compound 5b, with a m-fluorine substituent in the cinnamic scaffold, exerted the highest selectivity (SI = 773), followed by 5a, an amide with unsubstituted cinnamic acid (SI = 715).
Cytotoxicity against a human cell line (HepG2) was evaluated using the neutral red assay. In brief, human cells were seeded to a 96 well plate in complete culture medium, before on the following day a serial dilution of the respective compound was added. After one day of incubation, cytotoxicity was evaluated by the addition of Neutral Red, subsequent lysis of cells and the measurement of absorbance in a plate reader. The IC50 was determined as for the in vitro drug assay against P. falciparum. To assess the safety of a compound, SI was calculated as the fractional ratio between the IC50 values for HepG2 and the P. falciparum 3D7 strain.

[4] = tested on: P. falciparum erythrocytic stage, Pf3D7 (chloroquine-sensitive) strain; set-up: method as in PMID 31812035; conditions: ref [15]; cited from earlier work
[5] = tested on: P. falciparum erythrocytic stage, PfDd2 (chloroquine-resistant) strain; conditions: ref [15]; cited from earlier work
[6] = tested on: human liver hepatocellular carcinoma cell line (HepG2); set-up: method as in PMID 31812035; conditions: ref [15]; cited from earlier work

| Structure (SMILES) | IC50 [1] | IC50 [2] | IC50 [3] | SI, selectivity index [3] | IC50 [4] | IC50 [5] | IC50 [6] |
| --- | --- | --- | --- | --- | --- | --- | --- |
| C/C(=C\c1ccccc1)C(=O)NCCOc1ccc2c(c1)[nH]c1c(C)nccc12 [6h, (E)-2-methyl-N-(2-((1-methyl-9H-pyrido[3,4-b]indol-7-yl)oxy)ethyl)-3-phenylacrylamide] | 19.5 ± 11.8 µM | 6.78 ± 0.72 µM | 61.3 ± 2.75 µM | 9 | – | – | – |
| CCN(CC)CCCC(C)Nc1ccnc2cc(Cl)ccc12 (stereo not drawn) [CQ, chloroquine] | – | – | – | – | 0.003 ± 0.002 µM | 0.2 ± 0.1 µM | – |
| COc1ccc2c3ccnc(C)c3n(CCNC(=O)/C=C/c3cccc(Br)c3)c2c1 [5c, (E)-3-(3-bromophenyl)-N-(2-(7-methoxy-1-methyl-9H-pyrido[3,4-b]indol-9-yl)ethyl)acrylamide] | 0.41 ± 0.01 µM | 0.07 ± 0.03 µM | 2.88 ± 0.42 µM | 41 | – | – | – |
| Cc1nccc2c1[nH]c1cc(OCCNC(=O)C=Cc3ccccc3)ccc12 [6a, N-(2-((1-methyl-9H-pyrido[3,4-b]indol-7-yl)oxy)ethyl)cinnamamide] | 4.7 ± 2.65 µM | 0.98 ± 0.12 µM | 12.7 ± 0.66 µM | 13 | – | – | – |
| COc1ccc2c3ccnc(C)c3n(CCNC(=O)/C=C/c3cccc(F)c3)c2c1 [5b, (E)-3-(3-fluorophenyl)-N-(2-(7-methoxy-1-methyl-9H-pyrido[3,4-b]indol-9-yl)ethyl)acrylamide] | 0.78 ± 0.32 µM | 0.07 ± 0.03 µM | 54.1 ± 13.4 µM | 773 | – | – | – |
| Cc1nccc2c1[nH]c1cc(OCCNC(=O)/C=C/c3ccccc3F)ccc12 [6g, (E)-3-(2-fluorophenyl)-N-(2-((1-methyl-9H-pyrido[3,4-b]indol-7-yl)oxy)ethyl)acrylamide] | 3.92 ± 1.35 µM | 0.93 ± 0.28 µM | 16.2 ± 1.86 µM | 17 | – | – | – |
| COc1ccc2c(c1)[nH]c1c(C)nccc12 [Harmine, harmine] | – | – | – | – | – | > 27.7 µM | > 250 µM |
| COc1ccc(/C=C/C(=O)NCCn2c3cc(OC)ccc3c3ccnc(C)c32)cc1 [5f, (E)-N-(2-(7-methoxy-1-methyl-9H-pyrido[3,4-b]indol-9-yl)ethyl)-3-(4-methoxyphenyl)acrylamide] | 0.49 ± 0.24 µM | 0.26 ± 0.001 µM | 74.7 ± 7.61 µM | 287 | – | – | – |
| COc1ccc(/C=C/C(=O)NCCOc2ccc3c(c2)[nH]c2c(C)nccc23)cc1 [6f, (E)-3-(4-methoxyphenyl)-N-(2-((1-methyl-9H-pyrido[3,4-b]indol-7-yl)oxy)ethyl)acrylamide] | 1.09 ± 0.49 µM | 0.21 ± 0.14 µM | 10.5 ± 0.43 µM | 50 | – | – | – |
| COc1ccc2c3ccnc(C)c3n(CCNC(=O)/C=C/c3ccc(Cl)cc3)c2c1 [5e, (E)-3-(4-chlorophenyl)-N-(2-(7-methoxy-1-methyl-9H-pyrido[3,4-b]indol-9-yl)ethyl)acrylamide] | 0.17 ± 0.01 µM | 0.04 ± 0.02 µM | 2.91 ± 1.75 µM | 73 | – | – | – |
| Cc1nccc2c1[nH]c1cc(OCCNC(=O)/C=C/c3cccc(Br)c3)ccc12 [6c, (E)-3-(3-bromophenyl)-N-(2-((1-methyl-9H-pyrido[3,4-b]indol-7-yl)oxy)ethyl)acrylamide] | 0.48 ± 0.28 µM | 0.37 ± 0.22 µM | 6.11 ± 2.07 µM | 16 | – | – | – |

More lines, main results first:

| IC50 [1] | IC50 [2] | Structure (SMILES) | IC50 [3] | SI, selectivity index [3] | IC50 [4] | IC50 [5] | IC50 [6] |
| --- | --- | --- | --- | --- | --- | --- | --- |
| 0.4 ± 0.24 µM | 0.32 ± 0.03 µM | Cc1nccc2c1[nH]c1cc(OCCNC(=O)/C=C/c3ccc(Cl)cc3)ccc12 [6e, (E)-3-(4-chlorophenyl)-N-(2-((1-methyl-9H-pyrido[3,4-b]indol-7-yl)oxy)ethyl)acrylamide] | 7.72 ± 3.04 µM | 24 | – | – | – |
| 0.69 ± 0.18 µM | 0.15 ± 0.06 µM | Cc1nccc2c1[nH]c1cc(OCCNC(=O)/C=C/c3ccc(F)cc3)ccc12 [6d, (E)-3-(4-fluorophenyl)-N-(2-((1-methyl-9H-pyrido[3,4-b]indol-7-yl)oxy)ethyl)acrylamide] | 7.63 ± 2.47 µM | 51 | – | – | – |
| 1.11 ± 0.15 µM | 0.49 ± 0.25 µM | COc1ccc2c3ccnc(C)c3n(CCNC(=O)C=Cc3ccccc3)c2c1 [5a, N-(2-(7-methoxy-1-methyl-9H-pyrido[3,4-b]indol-9-yl)ethyl)cinnamamide] | 350 ± 13 µM | 715 | – | – | – |
| 0.33 ± 0.11 µM | 0.09 ± 0.06 µM | COc1ccc2c3ccnc(C)c3n(CCNC(=O)/C=C/c3ccc(F)cc3)c2c1 [5d, (E)-3-(4-fluorophenyl)-N-(2-(7-methoxy-1-methyl-9H-pyrido[3,4-b]indol-9-yl)ethyl)acrylamide] | 21 ± 0.88 µM | 233 | – | – | – |
| 5.01 ± 0.83 µM | 2.75 ± 1.6 µM | Cc1nccc2c1[nH]c1cc(OCCNC(=O)/C=C/c3cccc(F)c3)ccc12 [6b, (E)-3-(3-fluorophenyl)-N-(2-((1-methyl-9H-pyrido[3,4-b]indol-7-yl)oxy)ethyl)acrylamide] | 12.9 ± 3.31 µM | 5 | – | – | – |
